Reference: the CheMixHub ionic liquid set

Experiment: xn = mol fraction of the nth substance listed

CCCC[n+]1ccn(C)c1.N#C[C-](C#N)C#N + O
viscosity [mPa·s], 101 kPa
Conditions	278.15 K	288.15 K	298.15 K	308.15 K	318.15 K	328.15 K	333.15 K	338.15 K	348.15 K	358.15 K
x2 = 0	76.6	43.55	27.32	18.45	13.21	9.91	–	7.71	6.18	5.08
x2 = 0.01382	–	–	–	–	–	9.9	8.72	–	6.245	–
x2 = 0.0458	67.8	39.3	25.05	17.19	12.48	9.46	–	7.43	6.01	4.966
x2 = 0.1008	–	31.74	20.8	14.54	10.68	8.18	–	6.47	5.261	4.375
x2 = 0.175	47.79	28.85	19.03	13.37	9.89	7.62	–	6.06	4.944	4.125
x2 = 0.2116	44.3	26.98	17.9	12.67	9.43	7.3	–	5.83	4.783	4.001
x2 = 0.2885	37.68	23.28	15.62	11.15	8.36	6.51	–	5.232	4.309	3.618
x2 = 0.4273	28.9	18.24	12.43	8.99	6.81	5.351	–	4.329	3.586	3.028
x2 = 0.5034	25.05	15.99	11	8.01	6.106	4.82	–	3.916	3.273	2.748
x2 = 0.5607	21.78	14.03	9.71	7.1	5.428	4.295	–	3.496	2.912	2.472

CC[n+]1ccn(C)c1.COS(=O)(=O)[O-] + O
101 kPa
Conditions	viscosity [mPa·s]
288.15 K, x2 = 0.0023	137.7
288.15 K, x2 = 0.8948	4.861
298.15 K, x2 = 0.0023	83.9
298.15 K, x2 = 0.0887	80.2
308.15 K, x2 = 0.2235	42.26
308.15 K, x2 = 0.4163	24.36
308.15 K, x2 = 0.8948	2.817
318.15 K, x2 = 0.0023	37.81
328.15 K, x2 = 0.0023	27.34
338.15 K, x2 = 0.4163	10.89
338.15 K, x2 = 0.6106	5.924

CCn1cc[n+](CC)c1.O=S(=O)([N-]S(=O)(=O)C(F)(F)F)C(F)(F)F + O
100 kPa, x2 = 0.2772
Conditions	viscosity [mPa·s]
318.15 K	11.04
358.15 K	4.96

Cn1cc[n+](CCO)c1.O=C([O-])C(F)(F)C(F)(F)C(F)(F)C(F)(F)F + O
101 kPa
Conditions	electrical conductivity, 298.15 K [S/m]	viscosity, 298.15 K [mPa·s]	viscosity, 308.15 K [mPa·s]	viscosity, 318.15 K [mPa·s]
x1 = 0.01954	1.86	2.373	1.881	1.521
x1 = 0.0234	1.85	2.72	2.129	1.713
x1 = 0.02752	1.82	3.1	2.403	1.914
x1 = 0.02972	1.79	3.29	2.55	2.027
x1 = 0.03222	1.76	3.67	2.8	2.204
x1 = 0.03772	1.67	4.35	3.3	2.59
x1 = 0.04078	1.61	4.62	3.5	2.73
x1 = 0.04409	1.55	4.98	3.72	2.87
x1 = 0.05152	1.42	6.18	4.57	3.51
x1 = 0.05575	1.35	6.8	5	3.8
x1 = 0.0602	1.27	7.62	5.55	4.2
x1 = 0.06471	1.2	8.23	5.97	4.49
x1 = 0.07633	1.04	9.67	6.91	5.16
x1 = 0.082	0.97	10.72	7.6	5.62
x1 = 0.08895	0.89	12.37	8.65	6.3
x1 = 0.09727	0.81	13.43	9.39	6.84
x1 = 0.1069	0.73	15.01	10.41	7.54
x1 = 0.1275	0.6	18.85	12.87	9.24
x1 = 0.1399	0.54	22.47	15.15	10.73
x1 = 0.1574	0.465	26.8	17.82	12.47
x1 = 0.1727	0.415	29.6	19.6	13.63
x1 = 0.2189	0.309	38.1	24.8	16.97
x1 = 0.2539	0.257	43.9	28.2	19.16
x1 = 0.2952	0.213	52.2	33.1	22.22
x1 = 0.3469	0.173	64.4	40.2	26.6
x1 = 0.4176	0.134	86.6	52.8	34.3
x1 = 0.5205	0.097	131.5	77.3	48.9
x1 = 0.7217	0.053	232	129.6	78.3
x1 = 1	0.0315	713	351	190.8
